pIC50: −log10 of the molar value. Like-named read-outs stand apart in the source and are kept apart here.
What was measured:
PPARG receptors = target: T1, PPARG receptors (Homo sapiens, UniProt P37231); assay: RT-112-FABP4-NLuc Reporter Gene Assay (inverse agonism); format: cell-based; settings: incubated over night; for pIC50 / PPARG_RT-112_FABP4_NLuc_inverse agonist Efficacy - [%]: bladder cancer cell line RT-112/84, NanoLuc in FABP4 3′ UTR; for pIC50: 50 μM to 0.03 nM; for Emax: RT112/84, read-out: PPARG_RT-112_FABP4_NLuc_inverse agonist Efficacy - [%], bladder cancer cell line RT-112/84, NanoLuc in FABP4 3′ UTR
T1 construct: leading to PPARG dependent expression of the NanoLuc@ Luciferase; endogenous in cells
T1 sequence (P37231 1-505): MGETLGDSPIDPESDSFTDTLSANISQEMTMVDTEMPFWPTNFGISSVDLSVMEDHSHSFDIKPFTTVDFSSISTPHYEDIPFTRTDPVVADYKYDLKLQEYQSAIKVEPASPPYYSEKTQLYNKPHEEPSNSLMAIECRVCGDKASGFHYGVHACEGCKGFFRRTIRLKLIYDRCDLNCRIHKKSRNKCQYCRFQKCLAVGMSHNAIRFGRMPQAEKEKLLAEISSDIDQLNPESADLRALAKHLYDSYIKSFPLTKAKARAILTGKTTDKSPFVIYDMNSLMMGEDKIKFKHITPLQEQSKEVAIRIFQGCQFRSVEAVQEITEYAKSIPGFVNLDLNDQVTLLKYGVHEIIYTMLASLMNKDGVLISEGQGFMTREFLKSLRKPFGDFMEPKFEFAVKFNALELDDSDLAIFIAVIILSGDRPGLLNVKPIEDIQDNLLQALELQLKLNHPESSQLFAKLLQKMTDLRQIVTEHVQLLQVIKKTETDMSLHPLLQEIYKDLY
Procedure: Inverse agonists reduce the basal expression of the Luciferase resulting in a decrease of the Luciferase signal after addition of substrate and cell lysis. To exclude toxic effects of the compounds a parallel measurement of cell viability was performed based on the CellTiter Glo Assay (Promega).
On the next day 10 μl of test compounds dissolved in DMEM/F12 2% FBS and 0,01% BSA are placed in the wells of the microtiter plates. Final concentrations ranged from 50 μM to 0.03 nM. […] On the next day the NanoLuc Luciferase activity was measured by addition of 40 μl of NanoLuc substrate and lysis buffer (Promega, Madison, Wisconsin) diluted in 2 mM Ca-tyrode buffer (20 mM HEPES, 130 mM NaCl, 5 mM KCl, 5 mM NaHCO3, 2 mM MgCl2, pH 7,4). The resulting light signal was measured for 60 seconds in a luminometer. Every sample was tested in quadruples and mean values were used to calculate the IC50 values and efficacies of the compounds.

UMUC9 cells = assay: Proliferation UMUC9 H2B-GFP assay (Incucyte); format: cell-based; settings: 7 days of treatment; for pIC50: Day 1 subtracted, percentage of DMSO control; for Emax: UM-UC-9, 168 h, % efficacy (span)
Procedure: Proliferation UMUC9 H2B-GFP assay
Instrument: Incucyte® (Sartorius).
Description: Incucyte® Proliferation Assay measures cell proliferation based on nuclei count using live-cell time-lapse imaging. […] Measurements were performed on the day of treatment (Day 1 reading) and after 7 days of treatment (Day 8 reading). Green fluorescence in cell nuclei is measured using the instrument (Image Channels: Phase, Green; Acquisition time: 300 ms; Magnification: 4×).
Analysis: Selected metrics for analysis: Phase Object Confluence (Percent), Nuclei Count (1/Well) and Total Nuclei Area (μm^2/Well). Day 1 measurements were subtracted from each Day 8 measurement and expressed as percentage of the vehicle (DMSO) control. Percentage proliferation values were then plotted against compound concentration using GraphPad PRISM software. The Sigmoidal 4PL X is log (concentration) model of […] was used. Relative IC50 values and % efficacy (span) is reported below.

[1] = PPARG_RT-112_FABP4_NLuc_inverse agonist IC50 - [mol/l]
[2] = read-out: PPARG_RT-112_FABP4_NLuc_inverse agonist IC50 - [mol/l]

pIC50 (PPARG receptors; [1])	Emax (PPARG receptors)	pIC50 (PPARG receptors; [2])	PPARG_RT-112_FABP4_NLuc_inverse agonist Efficacy - [%] (PPARG receptors)	Structure (SMILES)	pIC50 (UMUC9 cells; UM-UC-9, relative IC50)	Emax (UMUC9 cells)	pIC50 (UMUC9 cells; relative IC50, read-out: UM-UC-9 GFP proliferation IC50 -)
7.40	99.3%	–	–	Cc1ccccc1NC(=O)c1cc(C(=O)NCc2ccccc2)c(F)cc1Cl [Example 25, N1-benzyl-4-chloro-6-fluoro-N^3-(2-methylphenyl)benzene-1,3-dicarboxamide]	< 5.22	–	–
5.80	114%	–	–	C#Cc1cc(F)c(C(=O)NCc2ccc(F)c(F)c2)cc1C(=O)Nc1ccccc1 [Example 40, N^1-(3,4-difluorobenzyl)-4-ethynyl-6-fluoro-N^3-phenylisophthalamide]	6.41	72.1%	–
8.87	95%	–	–	Cc1cc(N2CCOCC2)cnc1NC(=O)c1cc(C(=O)NCc2ccc(F)c(F)c2)c(F)c(C)c1Cl [Example 18, 4-chloro-N^1-[(3,4-difluorophenyl)methyl]-6-fluoro-5-methyl-N^3-[3-methyl-5-(morpholin-4-yl)pyridin-2-yl]benzene-1,3-dicarboxamide]	7.51	59.5%	–
–	95.5%	8.18	–	Cc1cccc(-c2nc3cc(NC(=O)c4cc(C(=O)NCc5ccc(F)c(F)c5)c(F)cc4Cl)ccc3o2)c1 [Example 39, 4-chloro-N^1-(3,4-difluorobenzyl)-6-fluoro-N^3-(2-(m-tolyl)benzo[d]oxazol-5-yl)isophthalamide]	7.47	88.7%	–
8.89	74%	–	–	O=C(NCc1ccccc1)c1cc(Cl)c(Cl)c(C(=O)Nc2ccc(Cl)cn2)c1F [Example 32, N^1-benzyl-4,5-dichloro-N^3-(5-chloropyridin-2-yl)-2-fluorobenzene-1,3-dicarboxamide]	–	–	–
–	–	–	–	Cc1cc(N2CCOCC2)cnc1NC(=O)c1cc(C(=O)NCc2ccc(F)c(F)c2)c(F)cc1Cl [Example 41, 4-chloro-N^1-(3,4-difluorobenzyl)-6-fluoro-N^3-(3-methyl-5-morpholinopyridin-2-yl)isophthalamide]	–	98.9%	–
8.82	96%	–	–	Cc1c(F)c(C(=O)NCc2ccc(F)c(F)c2)cc(C(=O)Nc2ccc(OCC(C)(C)O)cn2)c1Cl [Example 52, 4-chloro-N^1-[(3,4-difluorophenyl)methyl]-6-fluoro-N^3-[5-(2-hydroxy-2-methylpropoxy)pyridin-2-yl]-5-methylbenzene-1,3-dicarboxamide]	6.13	28.6%	–
9.09	148%	–	–	Cc1noc(-c2ccc(NC(=O)c3cc(C(=O)NCc4ccc(F)cc4)c(F)cc3Cl)cc2)n1 [Example 23, 4-chloro-6-fluoro-N^1-[(4-fluorophenyl)methyl]-N^3-[4-(3-methyl-1,2,4-oxadiazol-5-yl)phenyl]benzene-1,3-dicarboxamide]	8.42	54%	–
8.85	102%	–	–	Cc1cc(OC(F)F)ccc1NC(=O)c1cc(C(=O)NCc2ccc(F)c(F)c2)cc(Cl)c1Cl [Example 7, 4,5-dichloro-N^3-[4-(difluoromethoxy)-2-methylphenyl]-N^1-[(3,4-difluorophenyl)methyl]benzene-1,3-dicarboxamide]	8.04	64.9%	–
8.12	92.5%	–	–	Cc1ccc(NC(=O)c2cc(C(=O)NCc3ccccc3)c(F)cc2Cl)cc1 [Example 24, N^1-benzyl-4-chloro-6-fluoro-N^3-(4-methylphenyl)benzene-1,3-dicarboxamide]	7.60	24.4%	–
8.39	–	–	134.50%	Cc1cc(N2CCCC(O)C2)ccc1NC(=O)c1cc(C(=O)NCc2ccc(F)c(F)c2)c(F)cc1Cl (single isomer, unassigned) [Example 6, 4-chloro-N′-[(3,4-difluorophenyl)methyl]-6-fluoro-N^3-{4-[3-hydroxypiperidin-1-yl]-2-methylphenyl}benzene-1,3-dicarboxamide]	–	79.5%	7.66
8.33	102%	–	–	O=C(NCc1ccc(F)c(F)c1)c1cc(Cl)c(Cl)c(C(=O)Nc2cnccn2)c1 [Example 42, 4,5-dichloro-N^1-(3,4-difluorobenzyl)-N^3-(pyrazin-2-yl)isophthalamide]	8.71	68.6%	–
–	–	–	–	CC(C)(O)c1ccc(NC(=O)c2cc(C(=O)NCc3ccc(F)c(F)c3)c(F)cc2Cl)cc1 [Example 51, 4-chloro-N^1-[(3,4-difluorophenyl)methyl]-6-fluoro-N^3-[4-(2-hydroxypropan-2-yl)phenyl]benzene-1,3-dicarboxamide]	7.41	69.2%	–
8.50	90.5%	–	–	O=C(NCc1ccc(F)c(F)c1)c1cc(C(=O)Nc2ccc(OC(F)F)cc2)c(Cl)cc1F [Example 3, 4-chloro-N^3-[4-(difluoromethoxy)phenyl]-N^1-[(3,4-difluorophenyl)methyl]-6-fluorobenzene-1,3-dicarboxamide]	< 5.22	–	–
–	–	–	–	O=C(NCc1ccccc1)c1cc(C(=O)Nc2ccccc2)c(Cl)cc1F [Example 28, N^1-benzyl-4-chloro-6-fluoro-N^3-phenylbenzene-1,3-dicarboxamide]	–	31.2%	–
–	108%	8.32	–	Cc1cc(-c2nnco2)ccc1NC(=O)c1cc(C(=O)NCc2ccc(F)c(F)c2)c(F)cc1Cl [Example 10, 4-chloro-N^1-[(3,4-difluorophenyl)methyl]-6-fluoro-N^3-[2-methyl-4-(1,3,4-oxadiazol-2-yl)phenyl]benzene-1,3-dicarboxamide]	–	86.7%	–
9.28	70.7%	–	–	COc1ccccc1CNC(=O)c1cc(Cl)c(Cl)c(C(=O)Nc2ccccc2)c1 [Example 15, 4,5-dichloro-N-[(2-methoxyphenyl)methyl]-N^3-phenylbenzene-_,3-dicarboxamide]	8.10	60.6%	–
–	–	–	–	COc1ccccc1CNC(=O)c1ccc(Cl)c(C(=O)Nc2ccccc2)c1 [Example 46, 4-chloro-N^1-[(2-methoxyphenyl)methyl]-N^3-phenylbenzene-1,3-dicarboxamide]	5.58	70.6%	–
6.89	–	–	81.00%	Cc1cc(C(F)(F)F)ccc1NC(=O)c1cc(C(=O)NC(CO)c2ccccc2)c(F)cc1Cl (single isomer, unassigned) [Example 29, 4-chloro-6-fluoro-N^1-[(1R*)-2-hydroxy-1-phenylethyl]-N^3-[2-methyl-4-(trifluoromethyl)phenyl]benzene-1,3-dicarboxamide]	–	–	–
–	–	–	–	O=C(NCc1ccccc1)c1ccc(Br)c(C(=O)Nc2ccccc2)c1 [Example 48, N^1-benzyl-4-bromo-N^3-phenylbenzene-1,3-dicarboxamide]	–	43.1%	–
–	–	–	–	O=C(NCc1ccccc1)c1ccc(Cl)c(C(=O)Nc2ccccc2)c1 [Example 43, N^1-benzyl-4-chloro-N^3-phenylbenzene-1,3-dicarboxamide]	–	27.1%	–
–	–	–	–	O=C(NCc1ccccc1)c1cc(Cl)c(Cl)c(C(=O)Nc2ccccc2)c1 [Example 16, N1-benzyl-4,5-dichloro-N^3-phenylbenzene-1,3-dicarboxamide]	7.61	24.8%	–
–	–	–	–	O=C(NCc1ccc(F)cc1)c1ccc(Cl)c(C(=O)Nc2ccccc2)c1 [Example 45, 4-chloro-N^1-[(4-fluorophenyl)methyl]-N^3-phenylbenzene-1,3-dicarboxamide]	–	57.6%	–
